Measurements published in patent publication US6683095B2, “CDK inhibitors having 3-hydroxychromen-4-one structure” (LG Life Sciences Ltd., priority 2000, dated 2004).

Key:
[1] = target: T1, CDK2/cyclin A (Homo sapiens, UniProt P24941); assay: Inhibitory activity against CDK2 (CDK2/cyclin A kinase assay, GST-Rb substrate, 32P-ATP); assay type: biochemical; conditions: 100 μM ATP, 30° C., 30 minutes
T1 construct: His; made in house; host or cells: insect cell (baculovirus co-infection)
Procedure: The inhibitory activity against CDK2 was measured by referring to Kitagawa, M. et al., Oncogene 9; 2549, 1994 and that against CDK4 was measured by referring to Carlson, B. A. et al., Cancer Research 56; 2473, 1996.
The part of amino acid positions 780 to 928 of C-terminus of human Rb protein was isolated, N-terminus thereof was labelled with GST protein, large amount thereof was expressed in bacteria and purified to be used as the substrate for the enzyme.
(§1) The activities of CDK2/cyclin A and CDK4/cyclin D1 were determined as follows. About 100 ng of enzyme was reacted in a total 100 μl of 20 mM Tris(pH 8.0), 100 mM NaCl, 10 mM MgCl2 buffer solution containing 20 μg of GST-Rb protein, 100 μM of ATP and 5 μCi of p^32-γ-ATP at 30° C. for 30 minutes. Then, EDTA was added to a concentration of 20 mM to stop the enzyme reaction. Subsequently, 30 μl of 50% glutathione bead (purchased from Pharmacia) was added to attach GST-Rb to the bead, which was washed three times with 20 mM Tris(pH 8.0), 100 mM NaCl, 10 mM EDTA solution, and then scintillation counting was carried out. To analyze the inhibitory activity of the compound, the inhibitor having a proper concentration was added to the enzyme reaction solution, and then the enzyme activity was measured according to the above method.
The inhibitory activity against CDK2 and CDK4 of the compound of formula (1) according to the present invention was represented as IC50 value (see the following Table 1).

[2] = target: T2, CDK4/cyclin D1 (Homo sapiens, UniProt P11802); assay: Inhibitory activity against CDK4 (CDK4/cyclin D1 kinase assay, GST-Rb substrate, 32P-ATP); assay type: biochemical; conditions: 100 μM ATP, 30° C., 30 minutes
T2 construct: GST; made in house; host or cells: insect cell
Procedure: as §1

[3] = Acute oral toxicity test; conditions: mouse, in vivo; oral administration, ICR male, observed 7 days, Litchfield-Wilcoxon method
Procedure: To determine the acute oral toxicities of the test compounds, solutions containing a compound in different concentrations from each other were administered orally to ICR male with a dose of 10 ml/kg body weight. After oral administration, lethality and symptoms for 7 days were observed, and LD50 (mg/kg) was calculated according to Litchfield-Wilcoxon method.

T2 sequence (P11802 whole entry): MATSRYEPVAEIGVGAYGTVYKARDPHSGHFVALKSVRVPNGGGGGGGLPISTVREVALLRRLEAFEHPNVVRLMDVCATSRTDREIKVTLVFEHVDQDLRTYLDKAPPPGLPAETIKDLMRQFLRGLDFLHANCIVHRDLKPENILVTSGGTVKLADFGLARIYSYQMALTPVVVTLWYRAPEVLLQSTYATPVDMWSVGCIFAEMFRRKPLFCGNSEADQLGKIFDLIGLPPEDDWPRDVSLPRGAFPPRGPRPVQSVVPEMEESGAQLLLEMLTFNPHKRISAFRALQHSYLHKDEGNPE
T2 sequence (P24385 whole entry partner): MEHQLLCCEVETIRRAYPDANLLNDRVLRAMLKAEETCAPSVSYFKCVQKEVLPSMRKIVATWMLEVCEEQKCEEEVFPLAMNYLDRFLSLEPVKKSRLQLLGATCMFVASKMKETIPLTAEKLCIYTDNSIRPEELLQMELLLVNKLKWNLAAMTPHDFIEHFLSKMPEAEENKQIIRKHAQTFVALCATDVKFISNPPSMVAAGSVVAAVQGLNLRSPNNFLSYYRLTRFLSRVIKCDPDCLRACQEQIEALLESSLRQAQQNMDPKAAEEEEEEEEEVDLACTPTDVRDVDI

IC50 [1]	IC50 [2]	SMILES	LD50 at 7 days [3]
0.56 µM	0.15 µM	Cc1cc(C2CCN(C)CC2)c2oc(-c3ccc(O)cc3)c(O)c(=O)c2c1 [Compound 41, 2-(4-hydroxyphenyl)-3-hydroxy-6-methyl-8-(1-methyl-4-piperidinyl)-4H-chromen-4-one]	
0.178 µM	0.65 µM	Cc1cc(C2CCN(C)CC2)c2oc(-c3ccc(O)c(C)c3)c(O)c(=O)c2c1 [Compound 42, 3-hydroxy-2-(4-hydroxy-3-methylphenyl)-6-methyl-8-(1-methyl-4-piperidinyl)-4H-chromen-4-one]	
6.3 µM	< 1 µM	Cc1cc(C2CCN(C)CC2)c2oc(-c3ccc(O)c(C(F)(F)F)c3)c(O)c(=O)c2c1 [Compound 43, 3-hydroxy-2-(4-hydroxy-3-trifluoromethylphenyl)-6-methyl-8-(1-methyl-4-piperidinyl)-4H-chromen-4-one]	
< 1 µM	< 1 µM	Cc1cc(C2CCN(CCO)CC2)c2oc(-c3ccc(O)c(Cl)c3)c(O)c(=O)c2c1 [Compound 44, 2-(3-chloro-4-hydroxyphenyl)-3-hydroxy-8-[1-(2-hydroxyethyl)-4-piperidinyl]-6-methyl-4H-chromen-4-one]	
< 1 µM	< 1 µM	Cc1cc(C2CCN(CCN)CC2)c2oc(-c3ccc(O)c(Cl)c3)c(O)c(=O)c2c1 [Compound 45, 8-[1-(2-aminoethyl)-4-piperidinyl]-2-(3-chloro-4-hydroxyphenyl)-3-hydroxy-6-methyl-4H-chromen-4-one]	

Second part, the molecule before the results:

SMILES	IC50 [1]	IC50 [2]	LD50 at 7 days [3]
Cc1cc(N2CCCS2(=O)=O)c2oc(-c3ccc(O)cc3)c(O)c(=O)c2c1 [Compound 15, 2-[3-hydroxy-2-(4-hydroxyphenyl)-6-methyl-4-oxo-4H-chromen-8-yl]-1λ^6-isothiazolidin-1,1-dione]	0.25 µM	0.55 µM	> 3000 mg/kg
Cc1cc(N2CCCS2(=O)=O)c2oc(-c3ccc(O)c(Cl)c3)c(O)c(=O)c2c1 [Compound 17, 2-[2-(3-chloro-4-hydroxyphenyl)-3-hydroxy-6-methyl-4-oxo-4H-chromen-8-yl]-1λ^6-isothiazolidin-1,1-dione]	0.185 µM	0.195 µM	> 3000 mg/kg
Nc1cc(N2CCCS2(=O)=O)c2oc(-c3ccc(O)c(Cl)c3)c(O)c(=O)c2c1 [Compound 35, 2-[6-amino-2-(3-chloro-4-hydroxyphenyl)-3-hydroxy-4-oxo-4H-chromen-8-yl]-1λ^6-isothiazolidin-1,1-dione]	0.07 µM	0.18 µM	
CN(C)c1cc(N2CCCS2(=O)=O)c2oc(-c3ccc(O)c(Cl)c3)c(O)c(=O)c2c1 [Compound 36, 2-[2-(3-chloro-4-hydroxyphenyl)-6-(dimethylamino)-3-hydroxy-4-oxo-4H-chromen-8-yl]-1λ^6-isothiazolidin-1,1-dione]	0.5 µM	0.6 µM	> 3000 mg/kg
CNc1cc(N2CCCS2(=O)=O)c2oc(-c3ccc(O)c(Cl)c3)c(O)c(=O)c2c1 [Compound 37, 2-[2-(3-chloro-4-hydroxyphenyl)-6-(methylamino)-3-hydroxy-4-oxo-4H-chromen-8-yl]-1λ^6-isothiazolidin-1,1-dione]	0.2 µM	0.18 µM	> 3000 mg/kg
Cc1cc(C2CCN(C)CC2)c2oc(-c3ccc(O)c(Cl)c3)c(O)c(=O)c2c1 [Compound 38, 2-(3-chloro-4-hydroxyphenyl)-3-hydroxy-6-methyl-8-(1-methyl-4-piperidinyl)-4H-chromen-4-one]	0.5 µM	0.12 µM	> 3000 mg/kg
Cc1cc(-c2ccncc2)c2oc(-c3ccc(O)c(Cl)c3)c(O)c(=O)c2c1 [Compound 39, 2-(3-chloro-4-hydroxyphenyl)-3-hydroxy-6-methyl-8-(4-pyridinyl)-4H-chromen-4-one]	0.13 µM	0.28 µM	
Cc1cc(-c2cc[n+](C)cc2)c2oc(-c3ccc(O)c(Cl)c3)c(O)c(=O)c2c1 [Compound 40, 4-[2-(3-chloro-4-hydroxyphenyl)-3-hydroxy-6-methyl-4-oxo-4H-chromen-8-yl]-1-methylpyridinium bromide]	0.7 µM	0.31 µM	> 3000 mg/kg
